# Data published in patent US12528826B2, “[1,4]oxazepino[2,3-c]quinolinone derivatives as BCL6 inhibitors” (Cancer Research Technology Limited, priority 2019, dated 2026).
# Molecular target: T1, Trx-6×His-BCL6 (human BCL6 BTB domain covering amino-acid sequence 5-129) (Homo sapiens, UniProt P41182)
# T1 construct: made in house
# Experiment: HTRF assay (BCL6 / BCOR peptide)
# Type: binding
# Details: 1 nM Trx-6×His-BCL6, 300 nM BCOR-AF633 peptide, 2 hours incubation at room temperature; read-out: HTRF avg pIC50 (converted)
# Method: After 2 hours incubation at room temperature the plate was read on a Pherastar FSX (BMG Labtech) plate reader equipped with 337 nm laser excitation filter, a first emission filter at 620 nm and a second emission filter at 665 nm. The % inhibition at each concentration was calculated by normalising FRET ratio to the appropriate high (DMSO with all reagents) and low (DMSO without BCL6) controls.
row,IC50 [nM],Structure (SMILES)
1,8.32,"Cn1c(=O)c2c(c3cc(Nc4nc(N5CC(F)(F)C[C@H]5CO)ncc4Cl)ccc31)N[C@@H](C1CC1)C(F)(F)CO2 [Example 12x47, (S)-10-((5-chloro-2-((S)-4,4-difluoro-2-(hydroxymethyl)pyrrolidin-1-yl)pyrimidin-4-yl)amino)-2-cyclopropyl-3,3-difluoro-7-methyl-1,2,3,4-tetrahydro-[1,4]oxazepino[2,3-c]quinolin-6(7H)-one]"
2,18.6,"Cn1c(=O)c2c(c3cc(Nc4nc(N5C[C@H](F)C[C@H]5CO)ncc4Cl)ccc31)N[C@@H](C1CC1)C(F)(F)CO2 [Example 12x48b, (S)-10-((5-chloro-2-((2S,4R)-4-fluoro-2-(hydroxymethyl)pyrrolidin-1-yl)pyrimidin-4-yl)amino)-2-cyclopropyl-3,3-difluoro-7-methyl-1,2,3,4-tetrahydro-[1,4]oxazepino[2,3-c]quinolin-6(7H)-one]"
3,11.7,"Cn1c(=O)c2c(c3cc(Nc4nc(N5CC6CC5CC6(F)F)ncc4Cl)ccc31)N[C@@H](C1CC1)C(F)(F)CO2 (mixture of isomers) [Example 9l, (S)-10-((5-chloro-2-((1R,4R)-5,5-difluoro-2-azabicyclo[2.2.1]heptan-2-yl)pyrimidin-4-yl)amino)-2-cyclopropyl-3,3-difluoro-7-methyl-1,2,3,4-tetrahydro-[1,4]oxazepino[2,3-c]quinolin-6(7H)-one; (S)-10-((5-chloro-2-((1S,4S)-5,5-difluoro-2-azabicyclo[2.2.1]heptan-2-yl)pyrimidin-4-yl)amino)-2-cyclopropyl-3,3-difluoro-7-methyl-1,2,3,4-tetrahydro-[1,4]oxazepino[2,3-c]quinolin-6(7H)-one]"
4,1.62,"CC1CN(c2ncc(Cl)c(Nc3ccc4c(c3)c3c(c(=O)n4C)OCC(F)(F)[C@H](C4CC4)N3)n2)CC(C)S1(=O)=O (stereo partly drawn) [Example 12x11, (2S)-10-((5-chloro-2-(2,6-dimethyl-1,1-dioxidothiomorpholino)pyrimidin-4-yl)amino)-2-cyclopropyl-3,3-difluoro-7-methyl-1,2,3,4-tetrahydro-[1,4]oxazepino[2,3-c]quinolin-6(7H)-one]"
5,19.1,"CN(C)c1ncc(F)c(Nc2ccc3c(c2)c2c(c(=O)n3C)OCC(F)(F)[C@H](C3CC3)N2)n1 [Example 13p12, (S)-2-cyclopropyl-10-((2-(dimethylamino)-5-fluoropyrimidin-4-yl)amino)-3,3-difluoro-7-methyl-1,2,3,4-tetrahydro-[1,4]oxazepino[2,3-c]quinolin-6(7H)-one]"
6,4.27,"Cn1c(=O)c2c(c3cc(Nc4nc(N5C[C@@H](F)C[C@H]5CO)ncc4Cl)ccc31)N[C@@H](C1CC1)C(F)(F)CO2 [Example 12x48a, (S)-10-((5-chloro-2-((2S,4S)-4-fluoro-2-(hydroxymethyl)pyrrolidin-1-yl)pyrimidin-4-yl)amino)-2-cyclopropyl-3,3-difluoro-7-methyl-1,2,3,4-tetrahydro-[1,4]oxazepino[2,3-c]quinolin-6(7H)-one]"
7,1.51,"Cn1c(=O)c2c(c3cc(Nc4nc(N5[C@@H]6COC[C@H]5C[C@@H](O)C6)ncc4F)ccc31)N[C@@H](C1CC1)C(F)(F)CO2 [Example 5a, (S)-2-cyclopropyl-3,3-difluoro-10-((5-fluoro-2-((1R,5S,7R)-7-hydroxy-3-oxa-9-azabicyclo[3.3.1]nonan-9-yl)pyrimidin-4-yl)amino)-7-methyl-1,2,3,4-tetrahydro-[1,4]oxazepino[2,3-c]quinolin-6(7H)-one]"
8,3.72,"Cn1c(=O)c2c(c3cc(Nc4nc(N5CCC(F)(F)C(CC(=O)N6CC(F)(F)C6)C5)ncc4Cl)ccc31)N[C@@H](C1CC1)C(F)(F)CO2 (mixture of isomers) [Example 12x20, (2S)-10-((5-chloro-2-(3-(2-(3,3-difluoroazetidin-1-yl)-2-oxoethyl)-4,4-difluoropiperidin-1-yl)pyrimidin-4-yl)amino)-2-cyclopropyl-3,3-difluoro-7-methyl-1,2,3,4-tetrahydro-[1,4]oxazepino[2,3-c]quinolin-6(7H)-one]"
9,2.51,"CN(C)C(=O)C1CC(F)CN(c2ncc(Cl)c(Nc3ccc4c(c3)c3c(c(=O)n4C)OCC(F)(F)[C@H](C4CC4)N3)n2)C1 (stereo partly drawn) [Example 12x39, 1-(5-chloro-4-(((S)-2-cyclopropyl-3,3-difluoro-7-methyl-6-oxo-1,2,3,4,6,7-hexahydro-[1,4]oxazepino[2,3-c]quinolin-10-yl)amino)pyrimidin-2-yl)-5-fluoro-N,N-dimethylpiperidine-3-carboxamide]"
10,2.4,"C[C@H]1C[C@@H](O)CN(c2ncc(F)c(Nc3ccc4c(c3)c3c(c(=O)n4C)OCC(F)(F)[C@H](C4CC4)N3)n2)C1 [Example 2a, (S)-2-cyclopropyl-3,3-difluoro-10-((5-fluoro-2-((3R,5S)-3-hydroxy-5-methylpiperidin-1-yl)pyrimidin-4-yl)amino)-7-methyl-1,2,3,4-tetrahydro-[1,4]oxazepino[2,3-c]quinolin-6(7H)-one]"
11,33.1,"CCC1CCCN(c2ncc(Cl)c(Nc3ccc4c(c3)c3c(c(=O)n4C)OCC(F)(F)[C@H](C4CC4)N3)n2)C1 (mixture of isomers) [Example 11b, (S)-10-((5-chloro-2-((R)-3-ethylpiperidin-1-yl)pyrimidin-4-yl)amino)-2-cyclopropyl-3,3-difluoro-7-methyl-1,2,3,4-tetrahydro-[1,4]oxazepino[2,3-c]quinolin-6(7H)-one:(S)-10-((5-chloro-2-((S)-3-ethylpiperidin-1-yl)pyrimidin-4-yl)amino)-2-cyclopropyl-3,3-difluoro-7-methyl-1,2,3,4-tetrahydro-[1,4]oxazepino[2,3-c]quinolin-6(7H)-one (1:1)]"
12,5.37,"CC1CC(CC(=O)N2CCC2)CN(c2ncc(Cl)c(Nc3ccc4c(c3)c3c(c(=O)n4C)OCC(F)(F)[C@H](C4CC4)N3)n2)C1 (single isomer, unassigned) [Example 12x16b]"
13,3.47,"CCNC(=O)[C@@H]1C[C@H](C)CN(c2ncc(Cl)c(Nc3ccc4c(c3)c3c(c(=O)n4C)OCC(F)(F)[C@H](C4CC4)N3)n2)C1 (racemic) [Example 9c, (3R,5S)-1-(5-chloro-4-(((S)-2-cyclopropyl-3,3-difluoro-7-methyl-6-oxo-1,2,3,4,6,7-hexahydro-[1,4]oxazepino[2,3-c]quinolin-10-yl)amino)pyrimidin-2-yl)-N-ethyl-5-methylpiperidine-3-carboxamide; (3S,5R)-1-(5-chloro-4-(((S)-2-cyclopropyl-3,3-difluoro-7-methyl-6-oxo-1,2,3,4,6,7-hexahydro-[1,4]oxazepino[2,3-c]quinolin-10-yl)amino)pyrimidin-2-yl)-N-ethyl-5-methylpiperidine-3-carboxamide]"
14,5.37,"Cn1c(=O)c2c(c3cc(Nc4nc(N5CCC5)ncc4Cl)ccc31)N[C@@H](C1CC1)C(F)(F)CO2 [Example 11v, (S)-10-((2-(azetidin-1-yl)-5-chloropyrimidin-4-yl)amino)-2-cyclopropyl-3,3-difluoro-7-methyl-1,2,3,4-tetrahydro-[1,4]oxazepino[2,3-c]quinolin-6(7H)-one]"
15,5.5,"Cn1c(=O)c2c(c3cc(Nc4nc(N5CCC(F)(F)C(C(=O)N6CCC6)C5)ncc4Cl)ccc31)N[C@@H](C1CC1)C(F)(F)CO2 (mixture of isomers) [Example 12x18, (2S)-10-((2-(3-(azetidine-1-carbonyl)-4,4-difluoropiperidin-1-yl)-5-chloropyrimidin-4-yl)amino)-2-cyclopropyl-3,3-difluoro-7-methyl-1,2,3,4-tetrahydro-[1,4]oxazepino[2,3-c]quinolin-6(7H)-one]"
